From the NIST ThermoML archive (doi:10.1021/acs.jced.7b00665) come the findings set out here.

The nature of data set [1]: Molar enthalpy of transition or fusion. The following applies: Crystal; DSC.
For data set [2] the following is noted: Crystal; DTA.

Numbers after ± are expanded uncertainties.

`OC/C=C/c1ccccc1` [trans-cinnamyl alcohol]: the “Molar enthalpy of transition or fusion” value in data set [1] was determined as 3.28 ± 0.287 kcal/mol. Further, the Normal melting temperature in data set [2] is 32.47 ± 0.61 °C.
